Results from patent publication US20070056052A1, “Methods of generating knock-out rodents” (priority 2001, published 2007).

Experiments:
[1] = test system: SD rats; assay: Heritability test of F1 phenodeviant rats bred to SD rats; type: in vivo, rat
Description: (§1) ENU mutagenesis rat protocol: Pathogen-free inbred Wistar Furth (WF), inbred Fischer-344 (F344) and outbred Sprague Dawley (SD) male and female rats were obtained from Harlan Sprague Dawley, Inc. (Indianapolis, Ind.). All rats were given Teklad Lab Blox chow (Harlan Teklad, Madison, Wis.), acidified water ad libitum, and were housed under a 12-h light/12-h dark cycle. After a one week acclimation period, nine-week-old male rats were administered ENU as a single intraperitoneal injection; for a split dose, rats were injected with ENU once at 9 weeks of age and again at 10 weeks of age. One gram of ENU (Sigma) was dissolved in 10 mls of 95% ethanol and then diluted with 90 mls of phosphate citrate buffer prior to injection. All injections of ENU were given in the morning hours. To characterize the effect of ENU treatment on fertility in the various rat strains, mutagenized males were paired with untreated females of the same strain for consecutive 2-3 week periods, beginning 3-5 weeks after the first ENU treatment and continuing a minimum of 26 weeks post-ENU. We observed female rats for vaginal plugs, gross pregnancy and date of birth/size of litters. For our phenotypic mutant (phenodeviant) rat screening experiments, ENU-treated SD male rats were bred with SD female rats and all F1 pups were visually checked for gross abnormalities in physical development or behavior as compared to littermates at least twice prior to weaning at approximately 21 days of age. A subset of the F1 phenodeviant rats identified was bred to SD rats to determine inheritance of the observed phenotypic mutation. Several of the heritable phenodeviant rat lines are currently being maintained and backcrossed to eliminate residual ENU-induced genetic changes not associated with the phenotypic mutation.
(§2) Phenodeviant rat production: Multiple ENU dosing protocols in the SD rat strain determine their germline mutagenic potential by breeding ENU-treated SD males to females of the same strain to produce F1 offspring. These pups were examined for readily observable physical or behavioral abnormalities. Phenodeviants were identified at all doses listed in Table 2 with a variety of abnormalities observed. Phenodeviant F1 pups were born at various times between 6-52 weeks post-ENU treatment of male founders. The most frequent abnormalities visually identified were those of the eyes, tail, and growth. […] Selected phenodeviant rat F1 pups were maintained and bred to determine the heritability of the physical abnormalities (Table 3). […] These abnormalities were diverse (Table 4).

[2] = test system: SD male rats (germ line); assay: Visual phenodeviant screen of F1 pups from ENU-treated SD males; type: in vivo, rat
Description: as §1, §2

CCN(N=O)C(N)=O [ENU, N-ethyl-N-nitrosourea]
ENU-induced heritable phenotype, observed phenotype ([1]; Line 18, F1 founder female, initial ENU dose 2 × 60 mg/kg): crooked tail & slit eyes | Heritable phenotype confirmed in multiple litters ([1]; Line 18, initial ENU dose 2 × 60 mg/kg): yes | ENU-induced heritable phenotype, observed phenotype ([1]; Line 19, F1 founder male, initial ENU dose 2 × 50 mg/kg): growth on tail | Heritable phenotype confirmed in multiple litters ([1]; Line 19, initial ENU dose 2 × 50 mg/kg): yes | ENU-induced heritable phenotype, observed phenotype ([1]; Line 28, F1 founder female, initial ENU dose 2 × 60 mg/kg): red ring eyes | Heritable phenotype confirmed in multiple litters ([1]; Line 28, initial ENU dose 2 × 60 mg/kg): yes | ENU-induced heritable phenotype, observed phenotype ([1]; Line 29, F1 founder female, initial ENU dose 2 × 60 mg/kg): oblong face | Heritable phenotype confirmed in multiple litters ([1]; Line 29, initial ENU dose 2 × 60 mg/kg): yes | ENU-induced heritable phenotype, observed phenotype ([1]; Line 32, F1 founder female, initial ENU dose 2 × 60 mg/kg): slit eyes | Heritable phenotype confirmed in multiple litters ([1]; Line 32, initial ENU dose 2 × 60 mg/kg): yes | ENU-induced heritable phenotype, observed phenotype ([1]; Line 38, F1 founder male, initial ENU dose 2 × 60 mg/kg): curved tail | Heritable phenotype confirmed in multiple litters ([1]; Line 38, initial ENU dose 2 × 60 mg/kg): yes | ENU-induced heritable phenotype, observed phenotype ([1]; Line 42, F1 founder female, initial ENU dose 2 × 60 mg/kg): bald spots | Heritable phenotype confirmed in multiple litters ([1]; Line 42, initial ENU dose 2 × 60 mg/kg): yes | ENU-induced heritable phenotype, observed phenotype ([1]; Line 60, F1 founder female, initial ENU dose 2 × 60 mg/kg): scaly skin | Heritable phenotype confirmed in multiple litters ([1]; Line 60, initial ENU dose 2 × 60 mg/kg, only one litter to date): no^a | ENU-induced heritable phenotype, observed phenotype ([1]; Line 61, F1 founder male, initial ENU dose 2 × 60 mg/kg): swollen feet | Heritable phenotype confirmed in multiple litters ([1]; Line 61, initial ENU dose 2 × 60 mg/kg, only one litter to date): no^a | Heritable phenotype confirmed in multiple litters ([1]; Line 63, initial ENU dose 2 × 60 mg/kg): yes | # phenodeviants heritable ([1]; SD, ENU dose 100 mg/kg): 0 | # phenodeviants non-heritable ([1]; SD, ENU dose 100 mg/kg): 4 | # phenodeviants unknown (sterile, not evaluated, being evaluated or died) ([1]; SD, ENU dose 100 mg/kg): 4 | # phenodeviants heritable ([1]; SD, ENU dose 120 mg/kg): 0 | # phenodeviants non-heritable ([1]; SD, ENU dose 120 mg/kg): 2 | # phenodeviants unknown (sterile, not evaluated, being evaluated or died) ([1]; SD, ENU dose 120 mg/kg): 1 | # phenodeviants heritable ([1]; SD, ENU dose 2 × 50 mg/kg): 1 | # phenodeviants non-heritable ([1]; SD, ENU dose 2 × 50 mg/kg): 4 | # phenodeviants unknown (sterile, not evaluated, being evaluated or died) ([1]; SD, ENU dose 2 × 50 mg/kg): 2 | # phenodeviants heritable ([1]; SD, ENU dose 2 × 60 mg/kg): 9 | # phenodeviants non-heritable ([1]; SD, ENU dose 2 × 60 mg/kg): 9 | # phenodeviants unknown (sterile, not evaluated, being evaluated or died) ([1]; SD, ENU dose 2 × 60 mg/kg): 61 | heritability of mutations in phenodeviants tested ([1]; SD, single dose protocols): none of the six phenodeviant rats tested showed heritable mutations | F1 phenodeviant rats, abnormality observed: behavioral ([2]; single dose 100 mg/kg): 1 | F1 phenodeviant rats, abnormality observed: craniofacial ([2]; single dose 100 mg/kg): 0 | F1 phenodeviant rats, abnormality observed: ear ([2]; single dose 100 mg/kg): 1 | F1 phenodeviant rats, abnormality observed: eye ([2]; single dose 100 mg/kg): 5 | F1 phenodeviant rats, abnormality observed: gonad ([2]; single dose 100 mg/kg): 1 | F1 phenodeviant rats, abnormality observed: growth (<50% littermates) ([2]; single dose 100 mg/kg): 0 | F1 phenodeviant rats, abnormality observed: limb/digit ([2]; single dose 100 mg/kg): 0 | F1 phenodeviant rats, abnormality observed: multiple ([2]; single dose 100 mg/kg): 0 | F1 phenodeviant rats, abnormality observed: skin/hair ([2]; single dose 100 mg/kg): 0 | F1 phenodeviant rats, abnormality observed: tail ([2]; single dose 100 mg/kg): 0 | total number of phenodeviants ([2]; single dose 100 mg/kg, 1251 F1 rats examined): 8 | F1 phenodeviant rats, abnormality observed: behavioral ([2]; single dose 120 mg/kg): 0 | F1 phenodeviant rats, abnormality observed: craniofacial ([2]; single dose 120 mg/kg): 0 | F1 phenodeviant rats, abnormality observed: ear ([2]; single dose 120 mg/kg): 1 | F1 phenodeviant rats, abnormality observed: eye ([2]; single dose 120 mg/kg): 1 | F1 phenodeviant rats, abnormality observed: gonad ([2]; single dose 120 mg/kg): 0 | F1 phenodeviant rats, abnormality observed: growth (<50% littermates) ([2]; single dose 120 mg/kg): 0 | F1 phenodeviant rats, abnormality observed: limb/digit ([2]; single dose 120 mg/kg): 0 | F1 phenodeviant rats, abnormality observed: multiple ([2]; single dose 120 mg/kg): 0 | F1 phenodeviant rats, abnormality observed: skin/hair ([2]; single dose 120 mg/kg): 0 | F1 phenodeviant rats, abnormality observed: tail ([2]; single dose 120 mg/kg): 1 | total number of phenodeviants ([2]; single dose 120 mg/kg, 419 F1 rats examined): 3 | F1 phenodeviant rats, abnormality observed: behavioral ([2]; split dose 2 × 50 mg/kg): 0 | F1 phenodeviant rats, abnormality observed: craniofacial ([2]; split dose 2 × 50 mg/kg): 0 | F1 phenodeviant rats, abnormality observed: ear ([2]; split dose 2 × 50 mg/kg): 0 | F1 phenodeviant rats, abnormality observed: eye ([2]; split dose 2 × 50 mg/kg): 4 | F1 phenodeviant rats, abnormality observed: gonad ([2]; split dose 2 × 50 mg/kg): 0 | F1 phenodeviant rats, abnormality observed: growth (<50% littermates) ([2]; split dose 2 × 50 mg/kg): 0 | F1 phenodeviant rats, abnormality observed: limb/digit ([2]; split dose 2 × 50 mg/kg): 0 | F1 phenodeviant rats, abnormality observed: multiple ([2]; split dose 2 × 50 mg/kg): 0 | F1 phenodeviant rats, abnormality observed: skin/hair ([2]; split dose 2 × 50 mg/kg): 0 | F1 phenodeviant rats, abnormality observed: tail ([2]; split dose 2 × 50 mg/kg): 3 | total number of phenodeviants ([2]; split dose 2 × 50 mg/kg, 782 F1 rats examined): 7 | F1 phenodeviant rats, abnormality observed: behavioral ([2]; split dose 2 × 60 mg/kg): 0 | F1 phenodeviant rats, abnormality observed: craniofacial ([2]; split dose 2 × 60 mg/kg): 2 | F1 phenodeviant rats, abnormality observed: ear ([2]; split dose 2 × 60 mg/kg): 0 | F1 phenodeviant rats, abnormality observed: eye ([2]; split dose 2 × 60 mg/kg): 37 | F1 phenodeviant rats, abnormality observed: gonad ([2]; split dose 2 × 60 mg/kg): 0 | F1 phenodeviant rats, abnormality observed: growth (<50% littermates) ([2]; split dose 2 × 60 mg/kg): 10 | F1 phenodeviant rats, abnormality observed: limb/digit ([2]; split dose 2 × 60 mg/kg): 5 | F1 phenodeviant rats, abnormality observed: multiple ([2]; split dose 2 × 60 mg/kg): 6 | F1 phenodeviant rats, abnormality observed: skin/hair ([2]; split dose 2 × 60 mg/kg): 6 | F1 phenodeviant rats, abnormality observed: tail ([2]; split dose 2 × 60 mg/kg): 13 | total number of phenodeviants ([2]; split dose 2 × 60 mg/kg, 5163 F1 rats examined): 79
